According to patent publication US8039514B2, “Sulfonamide compounds and use thereof” (Asahi Kasei Pharma Corporation, priority 2008, dated 2011):

Target: T1, human calcium-sensing receptor (CaSR) (Homo sapiens, UniProt P41180)
T1 construct: expressed in transfected cells
T1 sequence (P41180 20-1078): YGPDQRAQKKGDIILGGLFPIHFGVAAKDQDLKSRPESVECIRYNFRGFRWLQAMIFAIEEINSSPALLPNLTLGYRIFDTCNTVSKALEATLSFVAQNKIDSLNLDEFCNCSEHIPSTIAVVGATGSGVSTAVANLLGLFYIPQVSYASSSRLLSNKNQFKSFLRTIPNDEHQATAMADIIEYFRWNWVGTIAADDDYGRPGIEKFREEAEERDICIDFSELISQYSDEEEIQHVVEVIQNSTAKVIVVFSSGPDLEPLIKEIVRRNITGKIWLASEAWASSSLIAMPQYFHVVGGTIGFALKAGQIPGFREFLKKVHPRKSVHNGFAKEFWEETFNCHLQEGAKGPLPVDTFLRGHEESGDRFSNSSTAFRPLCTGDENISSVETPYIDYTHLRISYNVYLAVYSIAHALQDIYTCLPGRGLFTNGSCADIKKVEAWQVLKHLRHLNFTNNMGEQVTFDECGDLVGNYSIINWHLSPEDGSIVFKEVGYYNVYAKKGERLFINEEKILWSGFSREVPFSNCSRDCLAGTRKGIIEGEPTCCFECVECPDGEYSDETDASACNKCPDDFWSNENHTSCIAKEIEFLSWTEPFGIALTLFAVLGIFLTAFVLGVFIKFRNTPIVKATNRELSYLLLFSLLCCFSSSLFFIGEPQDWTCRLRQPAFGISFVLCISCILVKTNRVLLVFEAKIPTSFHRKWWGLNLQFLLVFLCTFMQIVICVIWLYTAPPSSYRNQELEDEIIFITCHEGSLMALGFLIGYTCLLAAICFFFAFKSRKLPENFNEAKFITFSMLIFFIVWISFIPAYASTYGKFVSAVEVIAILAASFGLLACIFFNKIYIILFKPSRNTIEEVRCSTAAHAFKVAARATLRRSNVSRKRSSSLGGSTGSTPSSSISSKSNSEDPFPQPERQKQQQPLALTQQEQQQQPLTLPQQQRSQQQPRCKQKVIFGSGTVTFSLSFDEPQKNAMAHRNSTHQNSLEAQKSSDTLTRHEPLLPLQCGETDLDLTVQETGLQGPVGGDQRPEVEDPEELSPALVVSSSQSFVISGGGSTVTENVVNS
Assay: intracellular Ca assay, CaSR antagonist activity in HEK293/hCaSR cells
Type: cell-based
Conditions: Fura2-AM, inhibition of response to calcium chloride ligand solution, read-out: IC50 values according to the intracellular Ca assay (CaSR antagonist activity)
How it was run: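 HEK293/hCaSR cells were loaded with Fura2-AM and pre-incubated with compound for 160 s at 37° C in HEPES buffer (pH 7.4, 0.8 mM CaCl2), then challenged with calcium ligand solution. Read-out was the peak 340/380 nm fluorescence ratio; inhibition is relative to no-compound (0%) and no-calcium-ligand (100%) controls.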

| Compound | IC50 [nM] |
| --- | --- |
| CCc1cc(-c2c(F)cccc2CCC(=O)O)ccc1S(=O)(=O)N(C)C[C@H](O)CNC(C)(C)CCCc1ccccc1 [Exp. 5-74, (R)-3-(3′-ethyl-6-fluoro-4′-(N-(2-hydroxy-3-(2-methyl-5-phenylpentan-2-ylamino)propyl)-N-methylsulfamoyl)biphenyl-2-yl)propionic acid] | ≤ 300 |
| CCc1cc(-c2ccc(CCCC(=O)O)cc2)ccc1S(=O)(=O)N(C)C[C@H](O)CNC(C)(C)CCCc1ccccc1 [Exp. 5-77, (R)-4-(3′-ethyl-4′-(N-(2-hydroxy-3-(2-methyl-5-phenylpentan-2-ylamino)propyl)-N-methylsulfamoyl)biphenyl-4-yl)butanoic acid] | ≤ 300 |
| Cc1cc(CCC(=O)O)sc1-c1cc(C(F)(F)F)cc(S(=O)(=O)N(C)C[C@H](O)CNC(C)(C)CCCc2ccccc2)c1 [Exp. 6-1, (R)-3-(5-(3-(N-(2-hydroxy-3-(2-methyl-5-phenylpentan-2-ylamino)propyl)-N-methylsulfamoyl)-5-(trifluoromethyl)phenyl)-4-methylthiophen-2-yl)propionic acid] | ≤ 300 |
| CN(C[C@H](O)CNC(C)(C)CCCc1ccccc1)S(=O)(=O)c1c(Cl)cc(-c2cccc(CCC(=O)O)c2)cc1Cl [Exp. 6-6, (R)-3-(3′,5′-dichloro-4′-(N-(2-hydroxy-3-(2-methyl-5-phenylpentan-2-ylamino)propyl)-N-methylsulfamoyl)biphenyl-3-yl)propionic acid] | ≤ 300 |
| CN(C[C@H](O)CNC(C)(C)CC1Cc2ccccc2C1)S(=O)(=O)c1cc(-c2ccc(CCC(=O)O)s2)cc(C(F)(F)F)c1 [Exp. 8-1, (R)-3-(5-(3-(N-(3-(1-(2,3-dihydro-1H-inden-2-yl)-2-methylpropan-2-ylamino)-2-hydroxypropyl)-N-methylsulfamoyl)-5-(trifluoromethyl)phenyl)thiophen-2-yl)propionic acid] | ≤ 300 |
| CCc1cc(-c2c(F)cccc2CCC(=O)O)ccc1S(=O)(=O)N(C)C[C@H](O)CNC(C)(C)CCCc1ccsc1 [Exp. 8-24, (R)-3-(3′-ethyl-6-fluoro-4′-(N-(2-hydroxy-3-(2-methyl-5-(thiophen-3-yl)pentan-2-ylamino)propyl)-N-methylsulfamoyl)biphenyl-2-yl)propionic acid] | ≤ 300 |
| CN(C[C@H](O)CNC(C)(C)CCCc1ccccc1)S(=O)(=O)c1cc(-c2cccc(CCC(=O)O)c2)cc(C(F)(F)F)c1 [Exp. 9-55, (R)-3-(3′-(N-(2-hydroxy-3-(2-methyl-5-phenylpentan-2-ylamino)propyl)-N-methylsulfamoyl)-5′-(trifluoromethyl)biphenyl-3-yl)propionic acid] | ≤ 300 |
| CN(C[C@H](O)CNC(C)(C)CCCc1ccccc1)S(=O)(=O)c1cc(-c2ccc(CCC(=O)O)cc2)cc(C(F)(F)F)c1 [Exp. 9-56, (R)-3-(3′-(N-(2-hydroxy-3-(2-methyl-5-phenylpentan-2-ylamino)propyl)-N-methylsulfamoyl)-5′-(trifluoromethyl)biphenyl-4-yl)propionic acid] | ≤ 300 |
| CN(C[C@H](O)CNC(C)(C)CCCc1ccsc1)S(=O)(=O)c1cc(-c2cccc(CCC(=O)O)c2)cc(C(F)(F)F)c1 [Exp. 9-73, (R)-3-(3′-(N-(2-hydroxy-3-(2-methyl-5-(thiophen-3-yl)pentan-2-ylamino)propyl)-N-methylsulfamoyl)-5′-(trifluoromethyl)biphenyl-3-yl)propionic acid] | ≤ 300 |
| CN(C[C@H](O)CNC(C)(C)CCCc1ccsc1)S(=O)(=O)c1cc(-c2ccc(CCC(=O)O)cc2)cc(C(F)(F)F)c1 [Exp. 9-75, (R)-3-(3′-(N-(2-hydroxy-3-(2-methyl-5-(thiophen-3-yl)pentan-2-ylamino)propyl)-N-methylsulfamoyl)-5′-(trifluoromethyl)biphenyl-4-yl)propionic acid] | ≤ 300 |
| CCc1cc(-c2ccc(CCC(=O)O)cc2)ccc1S(=O)(=O)N(C)C[C@H](O)CNC(C)(C)CCCc1ccccc1F [Exp. 9-89, (R)-3-(3′-ethyl-4′-(N-(3-(5-(2-fluorophenyl)-2-methylpentan-2-ylamino)-2-hydroxypropyl)-N-methylsulfamoyl)biphenyl-4-yl)propionic acid] | ≤ 300 |
| CCc1cc(-c2ccc(CCC(=O)O)cc2)ccc1S(=O)(=O)N(C)C[C@H](O)CNC(C)(C)CCCc1cccc(F)c1 [Exp. 9-90, (R)-3-(3′-ethyl-4′-(N-(3-(5-(3-fluorophenyl)-2-methylpentan-2-ylamino)-2-hydroxypropyl)-N-methylsulfamoyl)biphenyl-4-yl)propionic acid] | ≤ 300 |
| CCc1cc(-c2ccc(CCC(=O)O)cc2)ccc1S(=O)(=O)N(C)C[C@H](O)CNC(C)(C)CCCc1cccs1 [Exp. 9-92, (R)-3-(3′-ethyl-4′-(N-(2-hydroxy-3-(2-methyl-5-(thiophen-2-yl)pentan-2-ylamino)propyl)-N-methylsulfamoyl)biphenyl-4-yl)propionic acid] | ≤ 300 |
| CN(C[C@H](O)CNC(C)(C)CC1Cc2ccccc2C1)S(=O)(=O)c1ccc(-c2cccc(CCC(=O)O)n2)c(Cl)c1 [Exp. 9-161, (R)-3-(6-(2-chloro-4-(N-(3-(1-(2,3-dihydro-1H-inden-2-yl)-2-methylpropan-2-ylamino)-2-hydroxypropyl)-N-methylsulfamoyl)phenyl)pyridin-2-yl)propionic acid] | ≤ 300 |
| CN(C[C@H](O)CNC(C)(C)CCCc1ccccc1)S(=O)(=O)c1cc(F)cc(CCC(=O)O)c1Cl [Exp. 9-173, (R)-3-(2-chloro-5-fluoro-3-(N-(2-hydroxy-3-(2-methyl-5-phenylpentan-2-ylamino)propyl)-N-methylsulfamoyl)phenyl)propionic acid] | ≤ 300 |
| CN(C[C@H](O)CNC(C)(C)CCCc1ccccc1)S(=O)(=O)c1cc(OCC(=O)O)cc(C(F)(F)F)c1 [Exp. 9-179, (R)-2-(3-(N-(2-hydroxy-3-(2-methyl-5-phenylpentan-2-ylamino)propyl)-N-methylsulfamoyl)-5-(trifluoromethyl)phenyloxy)acetic acid] | ≤ 300 |
| CN(C[C@H](O)CNC(C)(C)CCCc1ccccc1)S(=O)(=O)c1cc(NCC(=O)O)cc(C(F)(F)F)c1 [Exp. 9-180, (R)-2-(3-(N-(2-hydroxy-3-(2-methyl-5-phenylpentan-2-ylamino)propyl)-N-methylsulfamoyl)-5-(trifluoromethyl)phenylamino)acetic acid] | ≤ 300 |
| CN(C[C@H](O)CNC(C)(C)CC1Cc2ccccc2C1)S(=O)(=O)c1ccc(CCCCCC(=O)O)c(C(F)(F)F)c1 [Exp. 10-14, (R)-6-(4-(N-(3-(1-(2,3-dihydro-1H-inden-2-yl)-2-methylpropan-2-ylamino)-2-hydroxypropyl)-N-methylsulfamoyl)-2-(trifluoromethyl)phenyl)hexanoic acid] | ≤ 300 |
| CN(CC(O)CNC(C)(C)CC1Cc2ccccc2C1)S(=O)(=O)c1cc(C=CC(=O)O)cc(C(F)(F)F)c1 (centres unmarked) [Exp. 11-1, 3-(3-(N-(3-(1-(2,3-dihydro-1H-inden-2-yl)-2-methylpropan-2-ylamino)-2-hydroxypropyl)-N-methylsulfamoyl)-5-(trifluoromethyl)phenyl)acrylic acid] | ≤ 300 |
| CC(C)(CC1Cc2ccccc2C1)NC[C@@H](O)CNS(=O)(=O)c1cccc(-c2cccc(C(=O)O)c2)c1 [Exp. 14-2, (R)-3′-(N-(3-(1-(2,3-dihydro-1H-inden-2-yl)-2-methylpropan-2-ylamino)-2-hydroxypropyl)sulfamoyl)biphenyl-3-carboxylic acid] | ≤ 300 |
